# According to patent US20070275005A1, “Use of Lipopeptides for Activating T Lymphocytes Through the Skin” (TX-CELL, priority 2003, published 2007):
# Where no end group is shown, it is not given here.
# What was measured:
# [1] = test system: CD8+ mediated T lymphocyte response; assay: Priming of a CD8+ T lymphocyte response by epicutaneous lipopeptide application (IFN-γ by lymph node cells); format: in vivo, C57BL/6 mice; conditions: 1 mg on shaved abdomen once a day during one week, read one week later, vs untreated or vehicle; FIG. 3
# Method: (§1) TRP2180-188 lipopeptide and OVA323-339-lipopeptide were diluted at 10 mg/ml in olive oil. Mice were treated during by applying 1 mg lipopeptide or olive oil directly on shaved abdominal skin.
# Sandwich ELISA was used to measure IFN-γ. In brief, ELISA plates (Polylabo, France) were coated with the appropriate coating mAbs (monoclonal antibodies) in carbonate buffer and incubated at 4° C. overnight. Plates were blocked for 30 mn at room temperature with 150 μl of 20% FCS/PBS to each well. 50 μl supernatants from in vitro stimulated cells were then added to the plates and incubated overnight at 4° C. After a washing step, 50 μl/well of the biotinylated second-step Ab was added. Plates were incubated for 1 h at room temperature and washed. The enzyme conjugate (streptavidin-peroxidase) was then added to each well. […] Plates were read on an ELISA reader at a wavelength of 405 nm after color development (Labsystems iEMS reader, Helsinki, Finland). […]
# The inventors first wanted to know whether the epicutaneous application of a MHC class I restricted peptide formulated as a lipopeptide could prime a T CD8^+ lymphocyte mediated immune response in mice. […] One week after the last lipopeptide application, mice were sacrificed and the production of IFN-γ by skin draining lymph nodes cells was measured in vitro upon restimulation with the TRP2180-188 peptide.
# [2] = test system: CD8+ mediated T lymphocyte response; assay: Enhancement of a CD8+ T lymphocyte response after prior peptide immunisation (IFN-γ by lymph node cells); format: in vivo; conditions: mice previously immunised s.c. with 25 μg TRP2180-188 peptide in CFA; 1 mg lipopeptide on skin for 3 days; day 30; FIG. 4
# Method: as §1
# (§2) Sandwich ELISA was used to measure IFN-γ. In brief, ELISA plates (Polylabo, France) were coated with the appropriate coating mAbs (monoclonal antibodies) in carbonate buffer and incubated at 4° C. overnight. Plates were blocked for 30 mn at room temperature with 150 μl of 20% FCS/PBS to each well. 50 μl supernatants from in vitro stimulated cells were then added to the plates and incubated overnight at 4° C. After a washing step, 50 μl/well of the biotinylated second-step Ab was added. Plates were incubated for 1 h at room temperature and washed. The enzyme conjugate (streptavidin-peroxidase) was then added to each well. Plates were incubated at room temperature for 1 h, washed and 100 μl/well of substrate was added, (1 mg/ml ABTS). Plates were read on an ELISA reader at a wavelength of 405 nm after color development (Labsystems iEMS reader, Helsinki, Finland). […]
# The inventors next wanted to evaluate the capacity of the TRP2180-188 lipopeptide treatment to enhance a prior immunisation of mice with the TRP2180-188 peptide. […] At day 30, mice were sacrificed and the production of IFN-γ by skin draining lymph nodes cells was measured in vitro upon restimulation with the TRP2180-188 peptide.
# [3] = test system: CD4+ mediated humoral response; assay: Enhancement of a CD4+ mediated humoral response (serum Ovalbumin-specific IgE); format: in vivo, Balb/C mice; conditions: mice immunised i.p. with 25 μg Ovalbumin in Alumn; 1 mg lipopeptide on skin for 3 days; day 20; FIG. 5
# Method: as §1, §2
# The inventors also wanted to know wether a lipopeptide epicutaneous application could enhance an humoral response elicited by CD4^+ T lymphocytes in immunised mice. […] At day 20, mice were sacrificed and the concentration of Ovalbumin-specific IgE immunoglobulin was measured in the serum of mice.
# [4] = test system: OVA-specific DO11-10 T cells; assay: In vivo activation of T lymphocytes by cutaneous lipopeptide application on the ear (FACS of draining lymph node); design: species or system BALB/c mice; conditions: daily 20 μl of 50 μM on the ear, vs olive oil; FIG. 1
# Method: Lipopeptide activates T lymphocytes in vivo. BALB/c mice were injected intravenously with 20×10^6 DO11-10 TCR-anti OVA transgenic splenocytes. Mice where then treated during 4 days by applying daily 20 μl of 50 μM OVA323-339-lipopeptide or the vehicle directly on one ear. At day five, mice were sacrificed, the draining lymph node and the contra-lateral node cells were stained with the anti-idiotype KJ1-26 recognizing specifically DO11-10 T lymphocytes, anti-CD4 and anti-CD25 antibody. FACS analysis is shown for lymph node cells gated on CD4^+ T lymphocytes.
# To analyze the potential curative effect of Tr1 cells in a different inflammatory model, the inventors set up skin inflammation experiments using the hapten oxazolone in three daily applications (FIG. 1). Because Tr1 cells need to be activated at the site of inflammation, they first tested the ability of cutaneous application of lipo-Ova peptide to stimulate T cells. BALB/c mice were injected with naive OVA-specific DO11-10 T cells and mice were treated during […] by applying daily 20 μl of 50 μM OVA323-339-lipopeptide or olive oil directly on the ear. […] In that model, three days after the induction of ear inflammation with oxazolone, the mice were treated with OVA-specific Th1, Th2 or Tr1 T-cell populations or a Tr1 cell clone (FIG. 2) and the lipo-OVA peptide was applied for 6 days.
Substance,production of IFN-γ by skin draining lymph nodes cells upon restimulation with the TRP2180-188 peptide [1],production of IFN-γ by skin draining lymph nodes cells upon restimulation with the TRP2180-188 peptide [2],serum concentration of Ovalbumin-specific IgE [3],activated (CD25+) OVA-specific (KJ1-26+) T cells in draining lymph nodes [4]
"TRP2180-188 lipopeptide (SVYDFFVWL; also: lipid moiety, structure and place not given here; UniProt P29812 180-188, looked up, fragment) [lipopeptide derived from the tyrosinase related protein-2, restricted to the H2-K^b molecule; purchased from Bachem]",high amounts of IFN-γ were produced,enhancement of the IFNγ production,,
"OVA323-339-lipopeptide (KISQAVHAAHAEINEAG; also: lipid moiety, structure and place not given here; UniProt P01012 323-339, looked up, fragment) [peptide 323-339 from Ovalbumin, MHC Class II I-A^d restricted, formulated as lipopeptide; purchased from Bachem]",,,increase in the serum concentration of Ovalbumin specific IgE,accumulation of activated (CD25^+) OVA-specific (KJ1-26^+) only in the ear draining-lymph node treated with the lipopeptide
